Columns and labels:
Assay type in all cases: cell-based
[1] = system: TNF production from human peripheral blood mononuclear cells (PBMC); assay: TNF production from PBMC stimulated with LPS, LTA, PGN or Pam3CSK4, 24 h, Cytometric Bead Array; details: for TNF % of control / TNF: positive control, concentration not given, Table 18
Experimental: (§1) Peripheral blood was drawn from healthy volunteers (with approval from the relevant ethical committee in Denmark). Heparinized blood was diluted 1/1 v/v with RPMI and were subjected to Ficoll density centrifugation within 2 h of drawing. Plasma was collected from the top from individual donors and was kept on ice until it was used at 2% in the culture medium (autologous culture medium). Isolated PBMC were resuspended in autologous culture medium and seeded in 96-well culture plates with 255.000 cells per well in a total of 200 μl. […] The concentrations used for stimulation were optimized on 3 different donors in initial experiments, for LPS two different concentrations were used to be sure to be on a cytokine level that is possible to modulate. In some experiments PBMC were treated with Dexamethason and Indomethacin alone and together with LPS or LTA as a control on downregulation of inflammatory cytokines. The supernatants were collected after incubation at 37° C. for 24 hours, and stored at −80° C. until cytokine measurement. Viability was measured by Alamar Blue (Biosource, DALL 1100) in all experiments and in some cases also by MTS (Promega) according to manufacturer's instruction and was in some experiments also judged by counting of the cells by a Nucleocounter.
(§2) Cytokine production in supernatants was measured by flow cytometry with a human inflammation cytometric bead array (CBA) according to manufacturer's instructions (BD) on a FACSarray flow cytometer. The following cytokines were measured: IL-8, IL-1β, IL-10, TNF, IL-12 p70, IL-6. In some experiments, cytokines were measured by ELISA kits from R&D systems (IL-10, TNF-α, IL-1β) according to the manufacturer' instruction.
(§3) All experiments were performed at least twice, with representative results shown. The data presented are expressed as mean plus/minus standard deviation (SD). […] Differences were considered significant for p<0.05.
Example 3 was carried out essentially as described in Example 2. […]

IL-23, human PBMC = assay: IL-23 in supernatants of human PBMC, ELISA; details: Infliximab 1 μg/ml
Experimental: as §1
Moreover, the effect of rhBD2 on human monocyte-derived dendritic cells was also investigated.
Cell culture supernatants were collected and stored at −80° C. Amounts of IL-23 was measured by standard sandwich ELISA using commercially available antibodies and standards according to the manufacturer's protocols (eBioscience).
All experiments were performed at least twice, with representative results shown. The data presented are expressed as mean plus/minus standard deviation […]. […] Differences were considered significant for p<0.05.

[2] = system: TNF production from mouse peripheral blood mononuclear cells (PBMC); assay: TNF production from mouse PBMC, mouse inflammation CBA; details: Infliximab 1 μg/ml
Experimental: Mouse peripheral blood mononuclear cells were isolated from blood of ten NMRI mice. In short, heparinized blood was diluted 1/1 v/v with RPMI and subjected to Ficoll density centrifugation within 2 h of drawing. Plasma was collected from the top and discarded. Isolated PBMC were resuspended in culture medium (RPMI 1640 (Gibco, 42401) w/1% penicillin and streptomycin and 1% L-Glutamine) and seeded in 96-well culture plates with 115.500 cells per well in a total of 200 μl. […] The supernatants were collected after incubation at 37° C. for 24 hours, and stored at −80° C. until cytokine measurement.
Cytokine production in supernatants was measured by flow cytometry with a mouse inflammation cytometric bead array (CBA) according to manufacturer's instructions (BD) on a FACSarray flow cytometer.

[3] = system: IL-1β production from human peripheral blood mononuclear cells (PBMC); assay: IL-1β production from PBMC stimulated with LPS or LTA, 24 h, Cytometric Bead Array; details: positive control, concentration not given, Table 20
Experimental: as §1, §2, §3

[4] = system: IL-10 production from human peripheral blood mononuclear cells (PBMC); assay: IL-10 production from PBMC stimulated with LPS, LTA or PGN, 24 h, Cytometric Bead Array; details: positive control, concentration not given, Table 19
Experimental: as §1, §2, §3

COc1ccc2c(c1)c(CC(=O)O)c(C)n2C(=O)c1ccc(Cl)cc1 [Indomethacin, reference compound]
TNF inhibition (positive controls) ([1]; PBMC stimulated with LPS or LTA, Table 13): only inhibited TNF (Table 13) after stimulation with LTA

Infliximab: anti-inflammatory compound included as positive control on downregulation of TNF [reference compound]
IL-23 (IL-23, human PBMC; Control (medium), non-treated 257): 227 pg/mL | IL-23 (IL-23, human PBMC; LPS 0.6 ng/ml, non-treated 553): 356 pg/mL | IL-23 (IL-23, human PBMC; LPS 20 ng/ml, non-treated 510): 373 pg/mL | IL-23 (IL-23, human PBMC; LTA 5 μg/ml, non-treated 762): 349 pg/mL | TNF % of control ([1]; LPS 0.6 ng/ml): 0% | TNF ([1]; LPS 0.6 ng/ml, non-treated 728): 0 pg/mL | TNF % of control ([1]; LPS 20 ng/ml): 0% | TNF ([1]; LPS 20 ng/ml, non-treated 2164): 0 pg/mL | TNF ([1]; Medium, non-treated 1): 0 pg/mL | TNF ([2]; LPS 20 ng/ml, untreated 2063): 2119 pg/mL | TNF ([2]; Medium, untreated 578): 530 pg/mL | IL-1β % of control ([3]; LPS 0.6 ng/ml): 86% | IL-1β ([3]; LPS 0.6 ng/ml, non-treated 741): 636 pg/mL | IL-1β % of control ([3]; LPS 20 ng/ml): 106% | IL-1β ([3]; LPS 20 ng/ml, non-treated 2544): 2704 pg/mL | IL-1β ([3]; Medium, non-treated 0): 0 pg/mL | IL-10 % of control ([4]; LPS 0.6 ng/ml): 69% | IL-10 ([4]; LPS 0.6 ng/ml, non-treated 66): 46 pg/mL | IL-10 % of control ([4]; LPS 20 ng/ml): 56% | IL-10 ([4]; LPS 20 ng/ml, non-treated 111): 63 pg/mL | IL-10 ([4]; Medium, non-treated 0): 0 pg/mL
